Test results taken from US20230391779A1, “BICYCLIC COMPOUNDS, COMPOSITIONS AND USE THEREOF” (Betta Pharmaceuticals Co., Ltd., priority 2020, published 2023).

Columns and labels:
[1] = Pharmacokinetics in plasma following PO cassette dosing in mice; type: in vivo; details: mouse, Balb/C female mice, 5 mg/kg; for AUC: blood collection 30 min, 2 h, 4 h
Method: Adult Balb/C female mice (6-7 weeks, Vitalriver) were received to cassette dosing of the test compounds with 10-20% DMSO, 10% Solutol (Kolliphor HS 15, Beijing Fengli Jingqiu Pharmaceutical Co., Ltd.) and 80-70% H2O as excipients. The mice (n=3) were giving oral administration (intragastric administration) at a dose of 5 mg/kg. Time of blood collection: 30 min, 2 h, 4 h. About 0.1 mL of whole blood was collected from retro-orbital venous plexus, and placed into tubes that contained EDTA as an anticoagulant. The samples were centrifuged at 4° C. and 4000 rpm for 10 min. The plasma was transferred into centrifuge tubes, and stored at −20° C. before being analyzed. Concentrations of test compounds in the plasma samples were analyzed with liquid chromatography-tandem mass spectrometry (LC-MS/MS). Plasma concentration-time data of individual animals was analyzed using Microsoft Excel 2010. Non-compartmental model was introduced in concentration analysis. The pharmacokinetic parameters of the test compounds were calculated using WinNonlin (version 4.1; Pharsight) software.

TEAD-YAP/TAZ interaction = assay: CTGF ELISA assay; type: cell-based, human; details: CTGF in culture supernatant of NCI-H2052 cells, 24 hours with compound
Method in brief: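 NCI-H2052 cells treated 24 h at 37 °C with compound (10000–0.61 nM, 0.5% DMSO); secreted CTGF in supernatant measured by sandwich ELISA (OD 450 nm) against a standard curve. EC50 fitted from CTGF concentration-response curves.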

NCI-H226 cells = assay: BRDU assay (cell proliferation); type: cell-based; details: Homo sapiens, proliferation inhibition, 1% FBS medium
Method: PerkinElmer's DELFIA® Cell proliferation kit (PerkinElmer, Cat: AD0200) was used to detect the inhibition on the proliferation of NCI-H226 cells (ATCC, CRL-5826). • a) Seeded 1500/well for NCI-H226 cell into a 96-well plate. • b) After 24 hours, compound was added to wells with 1% FBS medium conditions. The final testing concentrations of test compounds were […]. • c) NCI-H226 cells were incubated for 72 hours in incubator. • d) Diluted BrdU Labeling Reagent 100-fold with medium and added […] per well. The NCI-H226 cells were incubated 24 h in 5% CO2 at 37° C. incubator. • e) Detect cell proliferation according BrdU kit, and the luminescence signal value of each well on the multifunctional microplate reader was readed.
Data analysis: • Use GraphPad Prism 6 software to calculate IC50 and plot effect-dose curve of compounds.
Y=Bottom+(Top−Bottom)/(1+10^((LogIC50−X)×HillSlope)). • Y was the inhibition %, • X was the log concentration of compounds.
Inhibition %=(signalHC−signalcomp)/(signalHC−signalLC); • HC (high control) was DMSO group, • LC (low control) was 10 uM staurosporine group, • Comp was administration group.
IC50 data obtained for the Example compounds are provided in Table 7, and the inhibition curve in NCI-H226 cell line are as shown in FIG. 1-7, wherein X axis is compound concentration (nm), Y axis is the inhibition %.

SMILES	Cmax [1] [ng/mL]	AUC [1] [ng·h/mL]	EC50 (TEAD-YAP/TAZ interaction) [nM]	IC50 (NCI-H226 cells) [nM]
C=C(F)C(=O)N1CC(n2nc(-c3ccc(C(F)(F)F)cc3)c3ncn(CC)c(=O)c32)C1 [Compound 218, 6-ethyl-1-(1-(2-fluoroacryloyl)-azetidin-3-yl)-3-(4-(trifluoro-methyl)phenyl)-1,6-dihydro-7H-pyrazolo[4,3-d]pyrimidin-7-one]	1190	3780	0.7	
C=C(F)C(=O)N1CC(n2c(=O)n(-c3ccc(C(F)(F)F)cc3)c3nccnc32)C1 [Compound 240, 1-(1-(2-fluoroacryloyl)azetidin-3-yl)-3-(4-(trifluoromethyl)phenyl)-1,3-dihydro-2H-imidazo[4,5-b]pyrazin-2-one]	1600	5880	1.3	
C=CC(=O)N1CCC(n2nc(-c3ccc(C(F)(F)F)cc3)c3cccnc32)C1 (centres unmarked) [Compound 21, 1-(3-(3-(4-(trifluoromethyl)phen-yl)-1H-pyrazolo[3,4-b]pyridin-1-yl)pyrrolidin-1-yl)prop-2-en-1-one]	1060	3150	11	
C=C(F)C(=O)N1CC(n2nc(-c3ccc(OC(F)(F)F)cc3)c3cccnc32)C1 [Compound 172, 2-fluoro-1-(3-(3-(4-(trifluoro-methoxy)phenyl)-1H-pyrazolo-[3,4-b]pyridin-1-yl)azetidin-1-yl)prop-2-en-1-one]	1650	1650	0.4	
C=C(F)C(=O)N1CC(n2nc(-c3ccc(C(F)(F)F)cc3F)c3ncccc32)C1 [Compound 130, 2-fluoro-1-(3-(3-(2-fluoro-4-(trifluoromethyl)phenyl)-1H-pyrazolo[4,3-b]pyridin-1-yl)-azetidin-1-yl)prop-2-en-1-one]	1960	7110	4	
C=C(F)C(=O)N1CC(n2nc(-c3ccc(C(F)(F)F)cc3)c3ncn(C)c(=O)c32)C1 [Compound 80, 1-(1-(2-fluoroacryloyl)azetidin-3-yl)-6-methyl-3-(4-(trifluorometh-yl)phenyl)-1,6-dihydro-7H-pyrazolo[4,3-d]pyrimidin-7-one]			2	2.32
C=C(F)C(=O)N1CC(n2c(=O)n(-c3ccc(C(F)(F)F)cc3)c3ccccc32)C1 [Compound 229, 1-(1-(2 fluoroacryloyl)azetidin-3 yl)-3-(4-(trifluoromethyl)phenyl)-1,3-dihydro-2H-benzo[d]imidazol-2-one]	1040	3840	20	
C=C(F)C(=O)N1CC(n2nc(-c3ccc(S(F)(F)(F)(F)F)cc3)c3cccnc32)C1 [Compound 173, 2-fluoro-1-(3-(3-(4-(pentafluoro-16-sulfanyl)phenyl)-1H-pyrazolo-[3,4-b]pyridin-1-yl)azetidin-1-yl)prop-2-en-1-one]	1670	5960	48	
C=CC(=O)N1CCC(n2nc(-c3ccc(C(F)(F)F)nc3)c3cccc(C(=O)NC4CC(F)(F)C4)c32)C1 (centres unmarked) [Compound 104, 1-(1-acryloylpyrrolidin-3-yl)-N-(3,3-difluorocyclobutyl)-3-(6-(trifluoromethyl)pyridin-3-yl)-1H-indazole-7-carboxamide]	1520	5060	14	
C=CC(=O)N1CCC(n2nc(-c3ccc(C(F)(F)F)cn3)c3ccccc32)C1 (centres unmarked) [Compound 58, 1-(3-(3-(5-(trifluoromethyl)pyr-idin-2-yl)-1H-indazol-1-yl)pyrrol-idin-1-yl)prop-2-en-1-one]	1580	4470	17	
C=CC(=O)N1CCC(n2nc(-c3ccc(C(F)(F)F)cc3)c3nc(OC)ccc32)C1 (centres unmarked) [Compound 89, 1-(3-(5-methoxy-3-(4-(trifluoro-methyl)phenyl)-1H-pyrazolo[4,3-b]pyridin-1-yl)pyrrolidin-1-yl)-prop-2-en-1-one]	1970	6480	12	
C=C(F)C(=O)N1CC(n2nc(-c3ccc(C(F)(F)F)nc3C)c3cccnc32)C1 [Compound 182, 2-fluoro-1-(3-(3-(2-methyl-6-(trifluoromethyl)pyridin-3-yl)-1H-pyrazolo[3,4-b]pyridin-1-yl)azetidin-1-yl)prop-2-en-1-one]	2160	7410	0.394	
C=C(F)C(=O)N1CC(n2c(=O)n(-c3ccc(C(F)(F)F)nc3)c3ccc(C)nc32)C1 [Compound 243, 3-(1-(2-fluoroacryloyl)azetidin-3-yl)-5-methyl-1-(6-(trifluoromethyl)pyridin-3-yl)-1,3-dihydro-2H-imidazo[4,5-b]pyridin-2-one]	1210	4010	28	
C=CC(=O)N1CC(n2nc(-c3ccc(C(F)(F)F)cc3)c3cccnc32)C1 [Compound 30, 1-(3-(3-(4-(trifluoromethyl)phen-yl)-1H-pyrazolo[3,4-b]pyridin-1-yl)azetidin-1-yl)prop-2-en-1-one]			12	55.7
C=CC(=O)N1CCC(n2nc(-c3ccc(C(F)(F)F)cc3)c3ncccc32)C1 (centres unmarked) [Compound 26, 1-(3-(3-(4-(trifluoromethyl)phen-yl)-1H-pyrazolo[4,3-b]pyridin-1-yl)pyrrolidin-1-yl)prop-2-en-1-one]	1420	4640	3.6	
C=C(F)C(=O)N1CC(n2nc(/C=C/c3ccccc3)c3cccnc32)C1 [compound 308]	2610	9110		
C=CC(=O)NC1CN(c2nc(-c3ccc(C(F)(F)F)cc3)nc3cccnc23)C1 [compound 281, N-(1-(2-(4-(trifluoromethyl)phenyl)pyrido[3,2-d]pyrimidin-4-yl)azetidin-3-yl)acrylamide]	1190	4200		
C=CC(=O)N1CCC(n2nc(-c3ccc(C(F)(F)F)cc3)c3cc(Cl)cnc32)C1 (centres unmarked) [Compound 108, 1-(3-(5-chloro-3-(4-(trifluoro-methyl)phenyl)-1H-pyrazolo[3,4-b]pyridin-1-yl)pyrrolidin-1-yl)-prop-2-en-1-one]	1200	3500	12	
C=C(F)C(=O)N1CC(n2nc(/C=C/C3CCCCC3)c3cccnc32)C1 [compound 331, (E)-1-(3-(3-(2-cyclohexylvinyl)-1H-pyrazolo[3,4-b]pyridin-1-yl)azetidin-1-yl)-2-fluoroprop-2-en-1-one]	1760	5730		
C=CC(=O)N1CCC(n2nc(-c3ccc(C(F)(F)F)cc3)c3ccc(C)cc32)C1 (centres unmarked) [Compound 47, 1-(3-(6-methyl-3-(4-(trifluoro-methyl)phenyl)-1H-indazol-1-yl)-pyrrolidin-1-yl)prop-2-en-1-one]	721	2510	15	
C=C(F)C(=O)N1CC(n2nc(-c3ccc(C(F)(F)F)cc3F)c3cccnc32)C1 [Compound 128, 2-fluoro-1-(3-(3-(2-fluoro-4-(trifluoromethyl)phenyl)-1H-pyrazolo[3,4-b]pyridin-1-yl)-azetidin-1-yl)prop-2-en-1-one]	5270	19300	9	
C=C(F)C(=O)N1CC(n2nc(C#CC3CCCC3)c3cccnc32)C1 [compound 312, 1-(3-(3-(cyclopentylethynyl)-1H-pyrazolo[3,4-b]pyridin-1-yl)azetidin-1-yl)-2-fluoroprop-2-en-1-one]	2080	5790		
C=CC(=O)NC1CN(c2nc(-c3ccc(C(F)(F)F)cc3)nc3ccccc23)C1 [compound 268, N-(1-(2-(4-(trifluoromethyl)phenyl)quinazolin-4-yl)azetidin-3-yl)acrylamide]	1690	6100		
C=C(F)C(=O)N1CC(n2c(=O)n(-c3ccc(C(F)(F)F)cc3)c3ccc(C)nc32)C1 [Compound 242, 3-(1-(2-fluoroacryloyl)azetidin-3-yl)-5-methyl-1-(4-(trifluoromethyl)phenyl)-1,3-dihydro-2H-imidazo[4,5-b]pyridin-2-one]	1770	5410	10	
